Where two headings read alike, the source gives them in different places.
What was measured:
ethanol elimination rate [1] = assay: Percent reduction in ethanol elimination rate versus dose of 4-MP in human subjects (literature data, FIG. 2); format: in vivo; details: doses of 4 mg/kg 4-MP and less; from linear least squares fit of literature data (FIG. 2)
Description: As used herein, “ethanol elimination rate” refers to the reduction in ethanol concentration in a subject's bloodstream over time after the subject has ingested ethanol. Typically, an ethanol elimination rate can be expressed in terms of millimole ethanol/kilogram subject body mass/hour. Techniques for blood sampling and analysis of ethanol levels in blood are well known to those of skill in the art. See, e.g., Inoue et al., Alcoholism: Clinical and Experimental Research 1984, 8, 319-322, incorporated herein by reference in its entirety. A “percent change in ethanol elimination rate,” can be calculated as follows:
[formula] where EtOH represents ethanol, and a number for a percent change in ethanol elimination that is less than 100 is a reduction in the percent change in EtOH elimination. Blood ethanol levels can also be calculated, for example, based on algorithms utilizing the amount of ethanol consumed by a subject, the subject's body mass, and time period since the consumption of ethanol, or, as another example, blood ethanol levels can be extrapolated from analysis of a subject's breath, and the like, as known to those of skill in the art. […]

[2] = tested on: serum acetaldehyde concentration; assay: Blinded, intra-subject controlled single dose study: serum acetaldehyde after oral 4-MP and ethanol in ethanol-intolerant subjects genotyped for ALDH2 and ADH2; format: in vivo, human
Protocol: A blinded, intra-subject controlled, single dose, dose escalation study of 4-MP for mitigation of acetaldehyde related toxicity in subjects with symptoms of inborn altered ethanol metabolism with concomitant ethanol exposure was undertaken.
Twenty-four subjects (n=24) were randomly selected and orally administered 1 mg/kg, 3 mg/kg, or 5 mg/kg of 4-MP, followed 30 minutes later by an oral dose of 20% ethanol ([…]).
Using the same protocol, wherein 4-MP was replaced with placebo, each of the twenty-four randomly selected subjects served as its own control.
The twenty-four randomly selected subjects were then subjected to blood sampling, and the sampled blood analyzed for acetaldehyde levels at select time points following ethanol consumption.
For acetaldehyde analysis, blood samples were prepared by dilution with an internal standard (acetaldehyde-d4), with derivatization of acetaldehyde with dinitrophenyl hydrazine in hydrochloric acid, liquid-liquid portioning and solvent exchange. The derivatization forms an acetaldehyde-dinitrophenyl hydrazine (DNPH) derivative which dramatically increases the boiling point of the molecule and thus its relative stability compared to the acetaldehyde itself (Nagy et al., Rapid Communications in Mass Spectrometry 2004, 18, 2473-2478). The derivatized analytes were separated using a Jones Chromatography (Grace-Vydac), 50 mm×2.1 mm, 3 μm column held in an oven set at 28° C. Two mobile phases were used in a gradient consisting of 30:70 acetonitrile:water versus 90:10 acetonitrile:water with 0.1% formic acid. The derivatized analyte was detected on a High Performance Liquid Chromatograph equipped with a Mass Spectrometer (HPLC/MS/MS). Quantitation was performed using a linear regression curve fit of impurities standards with 1/x weighting, prepared from dilutions of acetaldehyde in water. Samples and standards were injected at 2 μL.
All […] subjects were then genotyped for ALDH2 and ADH2 at the Alcohol Research Center at Indiana University using (i) genomic DNA isolation and (ii) TaqMan assay for allelic discrimination. • i. Genomic DNA isolation: DNA was first isolated using the “HotSHOT” method for isolating PCR quality genomic DNA (Truett et al., Biotechniques 2000, 29(1), 52-54). Briefly, blood blotted on filter paper (3 mm circle) was placed in the well of a 96-well plate and mixed with 75 μL 25 mM NaOH/0.3 mM EDTA solution and heated to 95° C. for 40 minutes, followed by neutralization with 75 μL 40 mM Tris-HCl (pH 5) solution. 1-5 microliters were used for each PCR. • ii. TaqMan Assay for Allelic Discrimination: The allelic discrimination assay used a multiplexed (more than one primer/probe pair per reaction), end-point (data is collected at the end of the PCR process) assay. Each assay mix contained two different TaqMan probes (Applied BioSystems, Foster City, Calif.), labeled with VIC or FAM fluorescent reporter dye, which bound preferentially to one of the alleles. The genotype of each sample was determined by the fluorescence levels of the reporter dyes and was clustered on a graph with other samples of the same genotype. Each reaction contained 5 μL of 2×TaqMan Universal PCR Masternix, No AmpErase UNG, 3.75 μL of water, 0.25 μL of 40× Assay Mix, and 1 μL of DNA sample. Eight or eleven controls were included on each 96-well plate: two no template controls, two or three heterozygous samples, and two or three of each of the homozygous samples. Thermocycling was carried out in MJ Research PTC-200 thermocyclers. The PCR products were then analyzed in an ABI PRISM® 7300 Sequence Detection System (SDS) instrument. SDS Software 1.3.1 converted the raw data to pure dye components and plotted the results of the allelic discrimination on a scatter plot of Allele X versus Allele Y (e.g., ADH2*1 versus ADH2*2); each genotype appeared on the graph as a cluster of points. […]

ethanol elimination rate [3] = details: human subjects, cited from earlier work
[4] = all subjects with reduced or absent ALDH2 activity, 1, 3 or 5 mg/kg 4-MP
[5] = reduced ALDH2 activity, ADH2*1/ADH2*1 or ADH2*1/ADH2*2, 1 mg/kg 4-MP
[6] = reduced or absent ALDH2 activity, ADH2*2/ADH2*2, 1 mg/kg 4-MP

With `Cc1cn[nH]c1` [4-MP, 4-methylpyrazole] as the compound, how does the “reduction in ethanol elimination” value (ethanol elimination rate [1]) read?
The value was “less than 10%”.

And the “Cmax mean and AUC0-8H mean of acetaldehyde concentration in the blood, versus absence of 4-MP (in words)” value [2, 4]?
Its value is “not significantly reduced”.

What about the “peak mean acetaldehyde concentration in the blood due to drinking ethanol (FIG. 5), versus placebo” value [2, 4] of the same compound?
Its value is “not reduced”.

What about the “Cmax mean and AUC0-8H mean of acetaldehyde concentration in the blood, versus absence of 4-MP (in words)” value [2, 5] of the same compound?
The value was “significantly reduced”.

And the “peak mean acetaldehyde concentration in the blood due to drinking ethanol (FIG. 3), versus placebo” value [2, 5]?
The value was “can be reduced”.

And the “Cmax mean and AUC0-8H mean of acetaldehyde concentration in the blood, versus absence of 4-MP (in words)” value [2, 6]?
The value was “not significantly reduced”.

What about the “peak mean acetaldehyde concentration in the blood due to drinking ethanol (FIG. 4), versus placebo” value [2, 6] of the same compound?
The value was “not reduced”.

And the “reduction in EtOH elimination” value (ethanol elimination rate [3]; 6 mg 4-MP per kilogram body weight, Lindros et al. 1981)?
Its value is 20%.

And the “reduction in EtOH elimination” value (ethanol elimination rate [3]; 8.5 mg 4-MP per kilogram body weight, Inoue et al. 1985)?
Its value is 12%.

And the “reduction in EtOH elimination” value (ethanol elimination rate [3]; 10 mg 4-MP per kilogram body weight, Inoue et al. 1984)?
The value was 20%.

What about the “reduction in EtOH elimination” value (ethanol elimination rate [3]; 12.5 mg 4-MP per kilogram body weight, Sarkola et al. 2002) of the same compound?
The value was 34%.
